Source: patent publication US20140315936A1, “AP[…] PI COMBINATION THERAPY” (AVEXA LIMITED, priority 2011, published 2014)
Like-named read-outs stand apart in the source and are kept apart here.

Tested on: HIV-1
Conditions: as part of an optimized regimen, plasma HIV-1 RNA
Description: Groups of HIV-1 positive patients were treated (as part of an optimized regimen) with ATC+either LPV or ATV, and compared to patients treated with 3TC+either LPV or ATV. Samples were taken after therapy to determine the number of patients who achieved an undetectable plasma HIV-1 RNA level (<50 copies/mL).

Row | Structure (SMILES) | Patients achieving <50 copies/mL, % (combined with 150 mg BID 3TC) [%] | Patients achieving <50 copies/mL, n/N (combined with 150 mg BID 3TC) | Patients achieving <50 copies/mL, % (combined with 800 mg BID ATC) [%] | Patients achieving <50 copies/mL, n/N (combined with 800 mg BID ATC)
1 | Cc1cccc(C)c1OCC(=O)N[C@@H](Cc1ccccc1)[C@@H](O)C[C@H](Cc1ccccc1)NC(=O)[C@H](C(C)C)N1CCCNC1=O [LPV, Lopinavir] | 62 | 18/29 | 60 | 18/30
2 | COC(=O)N[C@H](C(=O)N[C@@H](Cc1ccccc1)[C@@H](O)CN(Cc1ccc(-c2ccccn2)cc1)NC(=O)[C@@H](NC(=O)OC)C(C)(C)C)C(C)(C)C [ATV, methyl N-[(1S)-1-{[(2S,3S)-3-hydroxy-4-[(2S)-2-[(methoxycarbonyl)amino]-3,3-dimethyl-N′-{[4-(pyridin-2-yl)phenyl]methyl}butanehydrazido]-1-phenylbutan-2-yl]carbamoyl}-2,2-dimethylpropyl]carbamate] | 42.9 | 6/14 | 66.7 | 8/12
